PubChem BioAssay AID264 (DTP/NCI, 2004)
Results filed as inconclusive are left out.

Tested on: nude mice, LX-1 lung xenograft intrarenal, tumor weight T/C
Experiment: NCI In Vivo Anticancer Drug Screen. Data for tumor model Human Lung LX-1 Xenograft (intrarenal inoculation) in NU/NU Swiss (nude) mice
Details: endpoint: mean tumor weight change, higher = larger tumour
How it was run: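 Compound-treated mice carrying transplanted tumors were compared with vehicle-treated controls. Tumor size was the measured end point, and the value is the treated-group measurement divided by the control-group measurement (T/C).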

**Q.** How did the T/C (dose: 4.5 mg/kg/injection, schedule: Q04DX003 (sc), vehicle: saline with Tween-80) turn out when `C1CCC2C[N-]CCC2C1.C1CCC2C[N-]CCC2C1.C1CCC2C[N-]CCC2C1.C1CCC2C[N-]CCC2C1.[Cl][Rh][Cl]` (stereo unspecified) was run?
**A.** The T/C was 64 % of control.

**Q.** And the T/C (dose: 9.0 mg/kg/injection, schedule: Q04DX003 (sc), vehicle: saline with Tween-80)?
**A.** The T/C was 89 % of control.

**Q.** What about the T/C (dose: 18.0 mg/kg/injection, schedule: Q04DX003 (sc), vehicle: saline with Tween-80) of the same molecule?
**A.** Its T/C is 63 % of control.

**Q.** And the T/C (dose: 36.0 mg/kg/injection, schedule: Q04DX003 (sc), vehicle: saline with Tween-80)?
**A.** The T/C was 60 % of control.

**Q.** For `CC(=O)O[C@@H]1[C@@H](O)C2=C3[C@]4(C)[C@@H]1C(C)(C)C(=O)C[C@@H]4[C@]3(O)[C@H](OC(C)=O)[C@@]1(C[C@@H]1C)C2=O`, which T/C (dose: 12.5 mg/kg/injection, schedule: Q01DX010 (sc), vehicle: saline with Tween-80) is on record?
**A.** The T/C was 104 % of control.

**Q.** What about the T/C (dose: 25.0 mg/kg/injection, schedule: Q01DX010 (sc), vehicle: saline with Tween-80) of the same molecule?
**A.** The T/C was 58 % of control.

**Q.** What about the T/C (dose: 50.0 mg/kg/injection, schedule: Q01DX010 (sc), vehicle: saline with Tween-80) of the same molecule?
**A.** The T/C was 207 % of control.

**Q.** For `Oc1ccccc1C=NCCC[N-]CCCN=Cc1ccccc1O.[Co]`, which T/C (dose: 50.0 mg/kg/injection, schedule: Q01DX010 (sc), vehicle: suspension in saline) is on record?
**A.** The T/C was 124 % of control.

**Q.** What about the T/C (dose: 100.0 mg/kg/injection, schedule: Q01DX010 (sc), vehicle: suspension in saline) of the same molecule?
**A.** The T/C was 79 % of control.

**Q.** Which results are given for `C=C1C(=O)OCC2C(C(=O)O)=CC3C(C)C(C)=CC123` (stereo unspecified)?
**A.** T/C (dose: 3.13 mg/kg/injection, schedule: Q01DX010 (sc), vehicle: Klucel (hydroxypropylcellulose) (HPC)): 56 % of control; T/C (dose: 6.25 mg/kg/injection, schedule: Q01DX010 (sc), vehicle: Klucel (hydroxypropylcellulose) (HPC)): 109 % of control; T/C (dose: 12.5 mg/kg/injection, schedule: Q01DX010 (sc), vehicle: Klucel (hydroxypropylcellulose) (HPC)): 78 % of control; T/C (dose: 25.0 mg/kg/injection, schedule: Q01DX010 (sc), vehicle: Klucel (hydroxypropylcellulose) (HPC)): 165 % of control

**Q.** For `CC(=O)Oc1ccc[nH]c1=O`, which T/C (dose: 400.0 mg/kg/injection, schedule: Q04DX003 (sc), vehicle: saline with Tween-80) is on record?
**A.** Its T/C is 87 % of control.

**Q.** What about the T/C (dose: 800.0 mg/kg/injection, schedule: Q04DX003 (sc), vehicle: saline with Tween-80) of the same molecule?
**A.** Its T/C is 91 % of control.

**Q.** What does the source list for `C[C@@]1(CO)[C@H](O)CC[C@@]2(C)[C@H]1CC[C@H]1C[C@@H]3C[C@@]12CC[C@@]3(O)COC(=O)CN`?
**A.** T/C (dose: 133.0 mg/kg/injection, schedule: Q01DX010 (sc), vehicle: saline + alcohol): 101 % of control; T/C (dose: 200.0 mg/kg/injection, schedule: Q01DX010 (sc), vehicle: saline + alcohol): 106 % of control; T/C (dose: 62.5 micrograms/kg/injection, schedule: Q01DX010 (sc), vehicle: saline + alcohol): 102 % of control; T/C (dose: 500.0 micrograms/kg/injection, schedule: Q01DX010 (sc), vehicle: saline + alcohol): 115 % of control

**Q.** `O=c1ncccn1[C@@H]1O[C@H](CO)[C@H](O)C1O` (stereo partly specified) was tested. Which T/C (dose: 300.0 mg/kg/injection, schedule: Q04DX003 (sc), vehicle: saline) did it give?
**A.** The T/C was 100 % of control.

**Q.** And the T/C (dose: 600.0 mg/kg/injection, schedule: Q04DX003 (sc), vehicle: saline)?
**A.** Its T/C is 56 % of control.

**Q.** What about the T/C (dose: 1200.0 mg/kg/injection, schedule: Q04DX003 (sc), vehicle: saline) of the same molecule?
**A.** The T/C was 55 % of control.

**Q.** What about the T/C (dose: 2400.0 mg/kg/injection, schedule: Q04DX003 (sc), vehicle: saline) of the same molecule?
**A.** Its T/C is 47 % of control.

**Q.** For `O=C(O)C(CSC(c1ccccc1)(c1ccccc1)c1ccccc1)N=Cc1cccs1` (stereo unspecified), which T/C (dose: 100.0 mg/kg/injection, schedule: Q04DX003 (sc), vehicle: suspension in saline) is on record?
**A.** Its T/C is 86 % of control.

**Q.** And the T/C (dose: 200.0 mg/kg/injection, schedule: Q04DX003 (sc), vehicle: suspension in saline)?
**A.** Its T/C is 108 % of control.

**Q.** And the T/C (dose: 400.0 mg/kg/injection, schedule: Q04DX003 (sc), vehicle: suspension in saline)?
**A.** The T/C was 55 % of control.

**Q.** Which T/C (dose: 100.0 mg/kg/injection, schedule: Q04DX003 (sc), vehicle: saline) does the source give for `O=[N+]([O-])O.[Ga]` here?
**A.** Its T/C is 92 % of control.

**Q.** And the T/C (dose: 200.0 mg/kg/injection, schedule: Q04DX003 (sc), vehicle: saline)?
**A.** The T/C was 86 % of control.

**Q.** What about the T/C (dose: 400.0 mg/kg/injection, schedule: Q04DX003 (sc), vehicle: saline) of the same molecule?
**A.** Its T/C is 86 % of control.

**Q.** And the T/C (dose: 800.0 mg/kg/injection, schedule: Q04DX003 (sc), vehicle: saline)?
**A.** Its T/C is 83 % of control.

**Q.** `O=C1C=C[C@H](O)[C@@]2(CO)O[C@@H]12` was tested. Which T/C (dose: 6.25 mg/kg/injection, schedule: Q04DX003 (sc), vehicle: saline with Tween-80) did it give?
**A.** The T/C was 108 % of control.

**Q.** What about the T/C (dose: 12.5 mg/kg/injection, schedule: Q04DX003 (sc), vehicle: saline with Tween-80) of the same molecule?
**A.** Its T/C is 77 % of control.

**Q.** Which T/C (dose: 75.0 mg/kg/injection, schedule: Q04DX003 (sc), vehicle: saline with Tween-80) does the source give for `O=C1CN(Cc2ccc3c(c2)OCO3)NO1` here?
**A.** Its T/C is 63 % of control.

**Q.** And the T/C (dose: 150.0 mg/kg/injection, schedule: Q04DX003 (sc), vehicle: saline with Tween-80)?
**A.** Its T/C is 76 % of control.

**Q.** And the T/C (dose: 300.0 mg/kg/injection, schedule: Q04DX003 (sc), vehicle: saline with Tween-80)?
**A.** The T/C was 63 % of control.

**Q.** And the T/C (dose: 600.0 mg/kg/injection, schedule: Q04DX003 (sc), vehicle: saline with Tween-80)?
**A.** Its T/C is 46 % of control.
